Assay results as given in paper PMC9774391 (ACS Omega, 2022).

Legend:
[1] = system: NIH/3T3 mouse embryonic fibroblast cell line; assay: Cytotoxicity test (MTT); assay type: cell-based; settings: NIH/3T3 mouse fibroblast healthy cell line
Experimental: (§1) The NIH/3T3 cells were incubated according to the manufacturer’s recommendations. In 96-well plates, NIH/3T3 cells were seeded at a density of 1 × 10^4 cells per well. The MTT test was conducted in line with the previously mentioned standards.[19],[22],[23],[28],[30]

BChE = BChE (Homo sapiens, UniProt P06276); assay: biochemical
Experimental: (§2) According to the modified Ellman approach outlined in our team’s earlier work, the AChE and BChE inhibitory activities of the obtained compounds were evaluated.[18]−[21]

AChE [2] = target: T1, AChE (Homo sapiens, UniProt P22303); assay: biochemical
Experimental: as §2

MAO-A = target: T2, MAO-A (Homo sapiens, UniProt P21397); assay: In vitro MAO-A inhibition assay (fluorometric); assay type: biochemical
T2 sequence (P21397 1-527): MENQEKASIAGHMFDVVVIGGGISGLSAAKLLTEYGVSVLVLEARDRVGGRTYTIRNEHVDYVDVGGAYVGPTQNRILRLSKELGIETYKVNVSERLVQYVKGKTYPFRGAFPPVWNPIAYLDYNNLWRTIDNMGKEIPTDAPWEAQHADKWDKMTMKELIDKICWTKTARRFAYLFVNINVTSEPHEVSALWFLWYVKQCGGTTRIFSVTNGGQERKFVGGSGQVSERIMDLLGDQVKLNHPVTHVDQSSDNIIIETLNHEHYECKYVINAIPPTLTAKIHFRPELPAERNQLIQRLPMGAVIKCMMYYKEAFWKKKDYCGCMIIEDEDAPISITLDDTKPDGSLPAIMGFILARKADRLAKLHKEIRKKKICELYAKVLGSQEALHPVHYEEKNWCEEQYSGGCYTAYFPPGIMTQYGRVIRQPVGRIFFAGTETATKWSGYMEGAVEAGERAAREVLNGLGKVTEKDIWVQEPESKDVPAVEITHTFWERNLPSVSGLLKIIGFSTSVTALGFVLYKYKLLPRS

MAO-B = target: T3, MAO-B (Homo sapiens, UniProt P27338); assay: In vitro MAO-B inhibition assay (fluorometric); assay type: biochemical
T3 sequence (P27338 1-520): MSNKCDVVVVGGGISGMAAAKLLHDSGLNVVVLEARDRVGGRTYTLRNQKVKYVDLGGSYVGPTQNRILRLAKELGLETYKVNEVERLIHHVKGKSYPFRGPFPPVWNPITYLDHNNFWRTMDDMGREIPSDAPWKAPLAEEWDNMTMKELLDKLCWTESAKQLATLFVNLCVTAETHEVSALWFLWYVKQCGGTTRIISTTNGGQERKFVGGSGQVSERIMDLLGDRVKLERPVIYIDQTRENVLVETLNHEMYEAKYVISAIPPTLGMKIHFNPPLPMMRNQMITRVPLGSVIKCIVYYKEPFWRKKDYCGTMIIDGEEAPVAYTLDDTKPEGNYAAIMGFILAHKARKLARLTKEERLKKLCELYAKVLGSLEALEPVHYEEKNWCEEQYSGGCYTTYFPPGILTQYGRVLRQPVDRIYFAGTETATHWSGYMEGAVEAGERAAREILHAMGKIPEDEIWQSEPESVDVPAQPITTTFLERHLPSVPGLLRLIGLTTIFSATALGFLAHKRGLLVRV

AChE [3] = target: T1, AChE; assay: Enzyme kinetics on AChE (Lineweaver–Burk); assay type: biochemical
Experimental: The experimental procedures used in the kinetic investigations were identical to those used in the inhibition experiments. […]. Acetylthiocholine iodide (ATC) and butyrylthiocholine iodide (BTC) solutions were utilized as the substrates for the ChE enzymes, with serial dilutions at six different concentrations (600, 300, 150, 75, 37.5, and 18.75 μM). The tyramine substrate solution (concentrations ranging from 20 to 0.625 μM) was produced for the MAO enzymes at six different concentrations. Separate measurements were conducted both with and without an inhibitor. Using the Microsoft Office Excel 2013 program, the resulting absorbance values were compared to various substrate concentrations, and Lineweaver–Burk plots were created.[19]−[22]
The absorbance data from the experiments and the substrate concentrations were used to generate Lineweaver–Burk plots. The graphic’s x-axis stands for 1/[S] […] […]. The intersection of these four lines on the diagram was used to define the type of substrate and inhibitor reaction against the enzyme.
Reversible and irreversible inhibition of enzymes are the two categories that inhibition is commonly subdivided into. In irreversible inhibition, the inhibitor either creates a recalcitrant complex structure or establishes a covalent bond with the enzyme. […]

Beta Amyloid 1–42 (Aβ42) = target: T4, Beta Amyloid 1–42 (Aβ42) (Homo sapiens, UniProt P05067); assay: Beta Amyloid 1–42 (Aβ42) inhibitor screening assay; assay type: biochemical
T4 construct: The Beta Amyloid 1–42 (Aβ42) Ligand Screening Assay kit; purchased BioVision, Milpitas, CA
Source text: The Beta Amyloid 1–42 (Aβ42) Ligand Screening Assay kit (BioVision, Milpitas, CA) technique based on the fluorometric approach served as the basis for the experimental process.[21],[28],[29]

Cytotoxicity test (MTT) = assay type: cell-based; settings: NIH/3T3 mouse embryonic fibroblast cells (ATCC CRL-1658), NIH/3T3 mouse fibroblast healthy cell line
Experimental: as §1

[4] = DPPH free-radical scavenging activity assay; settings: serial dilution 10^–3–10^–9 M; read-out: IC50 on DPPH antioxidant activity
Experimental: This approach is based on evaluating the free-radical scavenging abilities of the stable 1,1-diphenyl-2-picrylhydrazyl (DPPH) radical. To create the DPHH solution, 9.86 mg of DPPH was weighed and diluted to 25 mL with methanol. The test wells were then filled with 100 μL of the DPPH solution and 100 μL of the test solutions. Only 200 μL of methanol was used for the blank reading, while the control reading required the usage of 100 μL each of methanol and the DPPH solution. Following incubation, a spectrophotometric measurement at 517 nm was carried out.[26],[27]

T4 sequence (P05067 672-713 limits assumed): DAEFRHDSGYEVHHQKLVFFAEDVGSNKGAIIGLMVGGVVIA
Chain of BChE (P06276 29-602): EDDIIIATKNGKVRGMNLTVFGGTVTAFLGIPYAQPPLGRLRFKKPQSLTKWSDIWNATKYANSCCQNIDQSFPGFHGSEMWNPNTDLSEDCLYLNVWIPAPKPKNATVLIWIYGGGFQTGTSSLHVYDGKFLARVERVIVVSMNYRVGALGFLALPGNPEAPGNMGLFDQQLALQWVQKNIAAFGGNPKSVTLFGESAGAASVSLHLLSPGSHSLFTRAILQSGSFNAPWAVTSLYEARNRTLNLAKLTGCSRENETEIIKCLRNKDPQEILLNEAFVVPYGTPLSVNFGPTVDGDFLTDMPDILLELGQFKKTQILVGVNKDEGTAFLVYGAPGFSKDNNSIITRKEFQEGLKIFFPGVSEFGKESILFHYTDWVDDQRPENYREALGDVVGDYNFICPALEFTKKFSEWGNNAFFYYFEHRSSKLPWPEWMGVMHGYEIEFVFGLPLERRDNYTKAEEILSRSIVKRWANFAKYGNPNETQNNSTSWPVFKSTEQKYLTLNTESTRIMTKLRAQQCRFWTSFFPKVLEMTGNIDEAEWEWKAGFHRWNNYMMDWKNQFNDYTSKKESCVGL
T1 sequence (P22303 32-614): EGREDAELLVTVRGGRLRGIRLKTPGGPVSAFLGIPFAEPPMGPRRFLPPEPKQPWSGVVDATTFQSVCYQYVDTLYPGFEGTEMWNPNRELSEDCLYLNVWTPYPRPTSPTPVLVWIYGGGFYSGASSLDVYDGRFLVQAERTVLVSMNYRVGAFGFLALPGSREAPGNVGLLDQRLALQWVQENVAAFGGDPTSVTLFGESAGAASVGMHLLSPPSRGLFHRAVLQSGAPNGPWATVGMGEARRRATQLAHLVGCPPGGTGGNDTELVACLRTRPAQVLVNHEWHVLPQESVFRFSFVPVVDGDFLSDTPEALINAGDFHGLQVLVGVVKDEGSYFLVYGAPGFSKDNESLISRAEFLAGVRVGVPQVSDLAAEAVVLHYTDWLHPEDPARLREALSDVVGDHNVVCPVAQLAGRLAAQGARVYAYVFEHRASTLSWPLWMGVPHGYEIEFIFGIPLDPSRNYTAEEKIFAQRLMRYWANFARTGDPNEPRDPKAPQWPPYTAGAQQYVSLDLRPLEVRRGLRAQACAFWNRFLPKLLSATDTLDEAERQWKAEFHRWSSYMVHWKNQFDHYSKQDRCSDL

COc1cc2c(cc1OC)C(=O)C(=Cc1ccc(NC(=O)CN3CCN(CCN(C)C)CC3)cc1)C2 [D24]
IC50 [1]: 18640 ± 119 nM | human BChE inhibition (%) (BChE; 10^–3 M): 97.932 ± 2.016% | human BChE inhibition (%) (BChE; 10^–4 M): 49.401 ± 0.559% | IC50 (AChE [2]): 46.9 ± 1.9 nM | human AChE inhibition (%) (AChE [2]; 10^–3 M): 93.224 ± 1.719% | human AChE inhibition (%) (AChE [2]; 10^–4 M): 90.486 ± 1.298% | human AChE inhibition (%) (AChE [2]; 10^–5 M): 82.415 ± 1.102% | human AChE inhibition (%) (AChE [2]; 10^–6 M): 72.846 ± 1.267% | human AChE inhibition (%) (AChE [2]; 10^–7 M): 63.963 ± 1.088% | human AChE inhibition (%) (AChE [2]; 10^–8 M): 41.281 ± 0.623% | human AChE inhibition (%) (AChE [2]; 10^–9 M): 18.773 ± 0.411% | human MAO-A inhibition (%) (MAO-A; 10^–3 M): 64.076 ± 0.323% | human MAO-A inhibition (%) (MAO-A; 10^–4 M): 25.257 ± 0.621% | human MAO-B inhibition (%) (MAO-B; 10^–3 M): 75.628 ± 1.426% | human MAO-B inhibition (%) (MAO-B; 10^–4 M): 46.324 ± 0.521%

CCCN(C)CC(=O)Nc1ccc(/C=C2\Cc3ccc(OC)cc3C2=O)cc1 [D29]
type of inhibition of AChE (AChE [3]; Lineweaver–Burk plots): mixed inhibition | Ki (AChE [3]; secondary plot of Lineweaver–Burk data, read-out: steady-state inhibition constant (Ki), AChE): 18.5 nM | inhibition at 1000 µM (Beta Amyloid 1–42 (Aβ42); 10^–3 M, read-out: % β-amyloid plaque inhibition): 80.3 ± 2.05% | inhibition at 100 µM (Beta Amyloid 1–42 (Aβ42); 10^–4 M, read-out: % β-amyloid plaque inhibition): 71.9 ± 1.88% | IC50 (Beta Amyloid 1–42 (Aβ42); read-out: IC50 on β-amyloid plaque aggregation): 124 ± 4.9 nM | IC50 (Cytotoxicity test (MTT)): 73600 ± 1760 nM | inhibition at 1000 µM (BChE; 10^–3 M): 61.1 ± 0.99% | inhibition at 100 µM (BChE; 10^–4 M): 26.914 ± 0.019% | IC50 (AChE [2]): 22.4 ± 0.8 nM | inhibition at 1000 µM (AChE [2]; 10^–3 M): 97.2 ± 1.32% | inhibition at 100 µM (AChE [2]; 10^–4 M): 94.3 ± 1.46% | inhibition at 10 µM (AChE [2]; 10^–5 M): 91.8 ± 1.21% | inhibition at 1 µM (AChE [2]; 10^–6 M): 88.3 ± 1.02% | inhibition at 0.1 µM (AChE [2]; 10^–7 M): 75.6 ± 0.974% | inhibition at 0.01 µM (AChE [2]; 10^–8 M): 34.3 ± 0.857% | inhibition at 0.001 µM (AChE [2]; 10^–9 M): 20.1 ± 0.357% | IC50 (MAO-A): 112 ± 4.2 nM | inhibition at 1000 µM (MAO-A; 10^–3 M): ≥ 90% | inhibition at 10 µM (MAO-A; 10^–5 M): 77.4 ± 1.13% | inhibition at 1 µM (MAO-A; 10^–6 M): 67.3 ± 1.08% | inhibition at 0.1 µM (MAO-A; 10^–7 M): 49.4 ± 0.567% | inhibition at 0.01 µM (MAO-A; 10^–8 M): 34 ± 0.422% | inhibition at 0.001 µM (MAO-A; 10^–9 M): 24.6 ± 0.328% | fold stronger MAO-A inhibition compared to moclobemide (MAO-A; ratio of IC50 values): 50 × | IC50 (MAO-B): 41.2 ± 1.8 nM | inhibition at 1000 µM (MAO-B; 10^–3 M): 91.8 ± 1.37% | inhibition at 100 µM (MAO-B; 10^–4 M): 87.6 ± 1.25% | inhibition at 10 µM (MAO-B; 10^–5 M): 82.2 ± 1.21% | inhibition at 1 µM (MAO-B; 10^–6 M): 74.2 ± 1.3% | inhibition at 0.1 µM (MAO-B; 10^–7 M): 66 ± 1.84% | inhibition at 0.01 µM (MAO-B; 10^–8 M): 40.3 ± 0.745% | inhibition at 0.001 µM (MAO-B; 10^–9 M): 20.4 ± 0.628% | IC50 [4]: 188 ± 8 nM
